Assay results published in patent US12486302B2, “Somatostatin receptor antagonist compounds and methods of using the same” (CDRD VENTURES INC., priority 2016, dated 2025).
Where a SMILES comes first, the peptide text is derived from it. Bridges are numbered along the chain shown (N, C = ends). [ ]: non-standard residue; d: D form. The star is where a group is joined. ξ: configuration not given here. dPhe(4-CONH2) = NC(=O)c1ccc(C[C@@H](N)C(=O)O)cc1; Phe(4-Cl) = N[C@@H](Cc1ccc(Cl)cc1)C(=O)O; ξPhe(4-Cl) = NC(Cc1ccc(Cl)cc1)C(=O)O; Butanoyl(3,3-Me2) = CC(C)(C)CC(=O)*; Lys(Me) = CNCCCC[C@H](N)C(=O)O; X4 = O=C(CS(=O)(=O)c1ccccc1)*; Succinamoyl = NC(=O)CCC(=O)*; Picolinoyl = O=C(c1ccccn1)*; ξY = NC(Cc1ccc(O)cc1)C(=O)O; 2Furoyl = O=C(c1ccco1)*; Hexanoyl = CCCCCC(=O)*; Bz = O=C(c1ccccc1)*; βAla = NCCC(=O)O

Target: somatostatin type 2 (SSTR2) receptors (Homo sapiens, UniProt P30874)
Assay: PathHunter β-Arrestin assay, antagonist mode, SSTR2
Assay type: cell-based
Conditions: agonist challenge at EC80
Description: The PathHunter® β-Arrestin assay monitors the activation of a GPCR in a homogenous, non-imaging assay format using a technology developed by DiscoveRx called Enzyme Fragment Complementation (EFC) with β-galactosidase (β-Gal) as the functional reporter. […] EA is fused to β-Arrestin and […] is fused to the GPCR of interest. When the GPCR is activated and β-Arrestin is recruited to the receptor, ED and EA complementation occurs, restoring β-Gal activity which is measured using chemiluminescent PathHunter® Detection Reagents. For antagonist determination, cells were pre-incubated with the compounds followed by agonist challenge at the EC80 concentration. Data was normalized to the maximal and minimal response observed in the presence of EC80 ligand and vehicle. Compound activity was analyzed using CBIS data analysis suite ChemInnovation, CA). Percentage inhibition was calculated using the following formula: % Inhibition=100%×(1−(mean signal of test sample-mean signal of vehicle control)/(mean signal of EC80 control-mean signal of vehicle control)). Percentage inhibition was calculated at 10 concentrations in steps on a Log 3 scale ranging from […] to 5e-5 μM. The results were plotted for IC50 calculation.

Chain of somatostatin type 2 (SSTR2) receptors (P30874 whole entry): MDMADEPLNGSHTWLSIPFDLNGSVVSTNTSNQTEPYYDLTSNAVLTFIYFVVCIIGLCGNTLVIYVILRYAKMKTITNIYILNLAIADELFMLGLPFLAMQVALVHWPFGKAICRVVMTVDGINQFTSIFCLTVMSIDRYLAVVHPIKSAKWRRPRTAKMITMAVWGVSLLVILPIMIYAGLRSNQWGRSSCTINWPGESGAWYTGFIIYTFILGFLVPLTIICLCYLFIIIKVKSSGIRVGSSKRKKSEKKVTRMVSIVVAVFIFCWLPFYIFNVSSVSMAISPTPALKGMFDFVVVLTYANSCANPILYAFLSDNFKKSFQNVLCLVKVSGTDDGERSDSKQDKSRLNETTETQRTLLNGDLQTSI

SMILES	IC50 [nM]
C[C@@H](O)[C@@H]1NC(=O)[C@H](CCCCN)NC(=O)[C@@H](Cc2ccc(C(N)=O)cc2)NC(=O)[C@H](Cc2ccc(O)cc2)NC(=O)[C@H](NC(=O)[C@@H](N)Cc2ccc(Cl)cc2)CSSC[C@@H](C(=O)NC(Cc2ccc(Cl)cc2)C(N)=O)NC1=O (stereo partly drawn) [Compound 42, H-Cpa-cyclo[DCys- Tyr-D-(4- carbamoyl)Phe- Lys-Thr-Cys]- 4-Cl-D-Phe-NH2] (H-[Phe(4-Cl)][dC]Y[dPhe(4-CONH2)]KTC[ξPhe(4-Cl)]-NH2; disulfide 2-7)	9.84
C[C@@H](O)[C@@H]1NC(=O)[C@H](CCCCN)NC(=O)[C@@H](Cc2ccc(C(N)=O)cc2)NC(=O)[C@H](Cc2ccc(Cl)cc2)NC(=O)[C@H](NC(=O)[C@@H](N)Cc2ccc(Cl)cc2)CSSC[C@@H](C(=O)NC(Cc2ccc(Cl)cc2)C(N)=O)NC1=O (stereo partly drawn) [Compound 43, H-Cpa-cyclo[DCys- 4-Cl-Phe-D-(4- carbamoyl)Phe-Lys- Thr-Cys]-4-Cl-D- Phe-NH2] (H-[Phe(4-Cl)][dC][Phe(4-Cl)][dPhe(4-CONH2)]KTC[ξPhe(4-Cl)]-NH2; disulfide 2-7)	25.6
COc1ccc(CC(NC(=O)[C@@H]2CSSC[C@@H](NC(=O)[C@@H](N)Cc3ccc(Cl)cc3)C(=O)N[C@@H](Cc3ccc(O)cc3)C(=O)N[C@H](Cc3ccc(C(N)=O)cc3)C(=O)N[C@@H](CCCCN)C(=O)N[C@@H]([C@@H](C)O)C(=O)N2)C(N)=O)cc1 (stereo partly drawn) [Compound 44, H-Cpa-cyclo[DCys- Tyr-D-(4- carbamoyl)Phe-Lys- Thr-Cys]-4-OMe-D- Phe-NH2] (H-[Phe(4-Cl)][dC]Y[dPhe(4-CONH2)]KTC[ξY](Me)-NH2; disulfide 2-7)	10.7
COc1ccc(CC(NC(=O)[C@@H]2CSSC[C@@H](NC(=O)[C@@H](N)Cc3ccc(Cl)cc3)C(=O)N[C@@H](Cc3ccc(OC)cc3)C(=O)N[C@H](Cc3ccc(C(N)=O)cc3)C(=O)N[C@@H](CCCCN)C(=O)N[C@@H]([C@@H](C)O)C(=O)N2)C(N)=O)cc1 (stereo partly drawn) [Compound 45, H-Cpa-cyclo[DCys- 4-OMe-Phe-D-(4- carbamoyl)Phe-Lys- Thr-Cys]-4-OMe-D- Phe-NH2] (H-[Phe(4-Cl)][dC]Y(Me)[dPhe(4-CONH2)]KTC[ξY](Me)-NH2; disulfide 2-7)	14.6
CNCCCC[C@@H]1NC(=O)[C@@H](Cc2ccc(C(N)=O)cc2)NC(=O)[C@H](Cc2ccc(O)cc2)NC(=O)[C@H](NC(=O)[C@@H](N)Cc2ccc(Cl)cc2)CSSC[C@@H](C(=O)NC(Cc2ccc(Cl)cc2)C(N)=O)NC(=O)[C@H]([C@@H](C)O)NC1=O (stereo partly drawn) [Compound 46, H-Cpa-cyclo[D-Cys-Tyr-D-Phe(4-carbamoyl)-Lys(N^ε-Me)-Thr-Cys]-D-Cpa-NH2] (H-[Phe(4-Cl)][dC]Y[dPhe(4-CONH2)][Lys(Me)]TC[ξPhe(4-Cl)]-NH2; disulfide 2-7)	0.398
CNCCCC[C@@H]1NC(=O)[C@@H](Cc2ccc(C(N)=O)cc2)NC(=O)[C@H](Cc2ccc(Cl)cc2)NC(=O)[C@H](NC(=O)[C@@H](N)Cc2ccc(Cl)cc2)CSSC[C@@H](C(=O)NC(Cc2ccc(Cl)cc2)C(N)=O)NC(=O)[C@H]([C@@H](C)O)NC1=O (stereo partly drawn) [Compound 47, H-Cpa-cyclo[D-Cys-Cpa-D-Phe(4-carbamoyl)-Lys(N^ε-Me)-Thr-Cys]-D-Cpa-NH2] (H-[Phe(4-Cl)][dC][Phe(4-Cl)][dPhe(4-CONH2)][Lys(Me)]TC[ξPhe(4-Cl)]-NH2; disulfide 2-7)	1.51
CNCCCC[C@@H]1NC(=O)[C@@H](Cc2ccc(C(N)=O)cc2)NC(=O)[C@H](Cc2ccc(Cl)cc2)NC(=O)[C@H](NC(=O)[C@@H](N)Cc2ccc(Cl)cc2)CSSC[C@@H](C(=O)NC(Cc2ccc(O)cc2)C(N)=O)NC(=O)[C@H]([C@@H](C)O)NC1=O (stereo partly drawn) [Compound 48, H-Cpa-cyclo[D-Cys-Cpa-D-Phe(4-carbamoyl)-Lys(N^ε-Me)-Thr-Cys]-D-Tyr-NH2] (H-[Phe(4-Cl)][dC][Phe(4-Cl)][dPhe(4-CONH2)][Lys(Me)]TC[ξY]-NH2; disulfide 2-7)	1.31
CNCCCC[C@@H]1NC(=O)[C@@H](Cc2ccc(C(N)=O)cc2)NC(=O)[C@H](Cc2ccc(O)cc2)NC(=O)[C@H](NC(=O)[C@H](Cc2ccc(Cl)cc2)NC(=O)CCN)CSSC[C@@H](C(=O)N[C@H](Cc2ccc(O)cc2)C(N)=O)NC(=O)[C@H]([C@@H](C)O)NC1=O [Compound 49, H-β-Ala-Cpa-cyclo[D-Cys-Tyr-D-Phe(4-carbamoyl)-Lys (Nε-Me)-Thr-Cys]-D-Tyr-NH2] (H-[βAla][Phe(4-Cl)][dC]Y[dPhe(4-CONH2)][Lys(Me)]TC[dY]-NH2; disulfide 3-8)	2.86
CNCCCC[C@@H]1NC(=O)[C@@H](Cc2ccc(C(N)=O)cc2)NC(=O)[C@H](Cc2ccc(O)cc2)NC(=O)[C@H](NC(=O)[C@H](Cc2ccc(Cl)cc2)NC(=O)CNC(=O)c2ccccc2)CSSC[C@@H](C(=O)N[C@H](Cc2ccc(O)cc2)C(N)=O)NC(=O)[C@H]([C@@H](C)O)NC1=O [Compound 50, Ph(CO)NHCH2(CO)-Cpa-cyclo[D-Cys-Tyr-D-Phe(4-carbamoyl)-Lys(N^ε-Me)-Thr-Cys]-D-Tyr-NH2] (Bz-G[Phe(4-Cl)][dC]Y[dPhe(4-CONH2)][Lys(Me)]TC[dY]-NH2; disulfide 3-8)	1.11
CNCCCC[C@@H]1NC(=O)[C@@H](Cc2ccc(C(N)=O)cc2)NC(=O)[C@H](Cc2ccc(O)cc2)NC(=O)[C@H](NC(=O)[C@H](Cc2ccc(Cl)cc2)NC(=O)CS(=O)(=O)c2ccccc2)CSSC[C@@H](C(=O)N[C@H](Cc2ccc(O)cc2)C(N)=O)NC(=O)[C@H]([C@@H](C)O)NC1=O [Compound 51, PhSO2CH2(CO)-Cpa-cyclo[D-Cys-Tyr-D-Phe(4-carbamoyl)-Lys(N^ε-Me)-Thr-Cys]-D-Tyr-NH2] (X4-[Phe(4-Cl)][dC]Y[dPhe(4-CONH2)][Lys(Me)]TC[dY]-NH2; disulfide 2-7)	1.45
CNCCCC[C@@H]1NC(=O)[C@@H](Cc2ccc(C(N)=O)cc2)NC(=O)[C@H](Cc2ccc(O)cc2)NC(=O)[C@H](NC(=O)[C@H](Cc2ccc(Cl)cc2)NC(=O)CC(C)(C)C)CSSC[C@@H](C(=O)N[C@H](Cc2ccc(O)cc2)C(N)=O)NC(=O)[C@H]([C@@H](C)O)NC1=O [Compound 52, t-BuCH2(CO)-Cpa-cyclo[D-Cys-Tyr-D-Phe(4-carbamoyl)-Lys(N^ε-Me)-Thr-Cys]-D-Tyr-NH2] ({Butanoyl(3,3-Me2)}-[Phe(4-Cl)][dC]Y[dPhe(4-CONH2)][Lys(Me)]TC[dY]-NH2; disulfide 2-7)	1.73
CNCCCC[C@@H]1NC(=O)[C@@H](Cc2ccc(C(N)=O)cc2)NC(=O)[C@H](Cc2ccc(O)cc2)NC(=O)[C@H](NC(=O)[C@H](Cc2ccc(Cl)cc2)NC(=O)c2ccccn2)CSSC[C@@H](C(=O)N[C@H](Cc2ccc(O)cc2)C(N)=O)NC(=O)[C@H]([C@@H](C)O)NC1=O [Compound 53, 2-Pyridyl(CO)-Cpa-cyclo[D-Cys-Tyr-D-Phe(4-carbamoyl)-Lys(N^ε-Me)-Thr-Cys]-D-Tyr-NH2] (Picolinoyl-[Phe(4-Cl)][dC]Y[dPhe(4-CONH2)][Lys(Me)]TC[dY]-NH2; disulfide 2-7)	4.28
CNCCCC[C@@H]1NC(=O)[C@@H](Cc2ccc(C(N)=O)cc2)NC(=O)[C@H](Cc2ccc(O)cc2)NC(=O)[C@H](NC(=O)[C@H](Cc2ccc(Cl)cc2)NC(=O)CCC(N)=O)CSSC[C@@H](C(=O)N[C@H](Cc2ccc(O)cc2)C(N)=O)NC(=O)[C@H]([C@@H](C)O)NC1=O [Compound 54, H2N(CO)(CH2)2(CO)-Cpa-cyclo[D-Cys-Tyr-D-Phe(4-carbamoyl)-Lys(N^ε-Me)-Thr-Cys]-D-Tyr-NH2] (Succinamoyl-[Phe(4-Cl)][dC]Y[dPhe(4-CONH2)][Lys(Me)]TC[dY]-NH2; disulfide 2-7)	2.33
CNCCCC[C@@H]1NC(=O)[C@@H](Cc2ccc(C(N)=O)cc2)NC(=O)[C@H](Cc2ccc(O)cc2)NC(=O)[C@H](NC(=O)[C@H](Cc2ccc(Cl)cc2)NC(=O)CNC(C)=O)CSSC[C@@H](C(=O)N[C@H](Cc2ccc(O)cc2)C(N)=O)NC(=O)[C@H]([C@@H](C)O)NC1=O [Compound 55, Ac-Gly-Cpa-cyclo[D-Cys-Tyr-D-Phe(4-carbamoyl)-Lys(N^ε-Me)-Thr-Cys]-D-Tyr-NH2] (Ac-G[Phe(4-Cl)][dC]Y[dPhe(4-CONH2)][Lys(Me)]TC[dY]-NH2; disulfide 3-8)	3.35
CCCCCC(=O)N[C@@H](Cc1ccc(Cl)cc1)C(=O)N[C@@H]1CSSC[C@@H](C(=O)N[C@H](Cc2ccc(O)cc2)C(N)=O)NC(=O)[C@H]([C@@H](C)O)NC(=O)[C@H](CCCCNC)NC(=O)[C@@H](Cc2ccc(C(N)=O)cc2)NC(=O)[C@H](Cc2ccc(O)cc2)NC1=O [Compound 56, CH3(CH2)4(CO)-Cpa-cyclo[D-Cys-Tyr-D-Phe(4-carbamoyl)-Lys(N^ε-Me)-Thr-Cys]-D-Tyr-NH2] (Hexanoyl-[Phe(4-Cl)][dC]Y[dPhe(4-CONH2)][Lys(Me)]TC[dY]-NH2; disulfide 2-7)	1.6
CNCCCC[C@@H]1NC(=O)[C@@H](Cc2ccc(C(N)=O)cc2)NC(=O)[C@H](Cc2ccc(O)cc2)NC(=O)[C@H](NC(=O)[C@H](Cc2ccc(Cl)cc2)NC(=O)c2ccco2)CSSC[C@@H](C(=O)N[C@H](Cc2ccc(O)cc2)C(N)=O)NC(=O)[C@H]([C@@H](C)O)NC1=O [Compound 57, (Furan-2-carboxy)-Cpa-cyclo[D-Cys-Tyr-D-Phe(4-carbamoyl)-Lys(N^ε-Me)-Thr-Cys]-D-Tyr-NH2] (2Furoyl-[Phe(4-Cl)][dC]Y[dPhe(4-CONH2)][Lys(Me)]TC[dY]-NH2; disulfide 2-7)	3.65
